Measured values published in patent US7790899B2, “Synthesis of N-(4-fluorobenzyl)-N-(1-methylpiperidin-4-yl)-N′-(4-(2-methylpropyloxy)phenylmethyl)carbamide and its tartrate salt and crystalline forms” (ACADIA Pharmaceuticals, Inc., priority 2004, dated 2010).

How the values were obtained:
[1] = Stability test, exposure to humidity (open containers, 60° C., 75% relative humidity); type: physicochemical; conditions: 1 week and 2 weeks, listed as polymorph A
Experimental: (§1) HPLC: HPLC measurements were carried out with a HP LC1090M, Column Symmetry C18, 3.0·150 mm.
The compounds of Examples 3(b) (polymorph A), 25 (polymorph B), and 36 (polymorph C) were placed in open containers and exposed 1 week and 2 weeks at 60° C. and 75% relative humidity. In polymorph A, a water content of 2.8% was detected and the HPLC purity was 80%.

[2] = Stability test, thermal treatment (sealed ampoules, 100° C., HPLC purity); type: physicochemical; conditions: 1 week
Experimental: as §1
The compounds of Examples 3(b) (polymorph A), 25 (polymorph B), and 36 (polymorph C) were placed in sealed ampoules and exposed for 1 week to 100° C. […] The products where analyzed by HPLC and the purity was detected to indicate chemical stability via decomposition.

[3] = Solubility statements in the description
[4] = Approximate solubility of Form A: saturated solutions, gravimetric determination after solvent removal; type: physicochemical
Experimental: Approximate solubility was measured by preparation of saturated solutions in various solvents and gravimetric determination of dissolved substance after solvent removal.

[5] = Water absorption and behaviour on exposure to relative humidity; type: physicochemical
[6] = Stability of the crystal forms (general findings); type: physicochemical; conditions: ambient temperatures
physchem = conditions: aqueous solubility

CC(C)COc1ccc(CNC(=O)N(Cc2ccc(F)cc2)C2CCN(C)CC2)cc1.CC(C)COc1ccc(CNC(=O)N(Cc2ccc(F)cc2)C2CCN(C)CC2)cc1.O=C(O)C(O)C(O)C(=O)O [Form A, N-(4-fluorobenzyl)-N-(1-methylpiperidin-4-yl)-N′-(4-(2-methylpropyloxy)phenylmethyl)carbamide hemi-tartrate]
HPLC purity after exposure to humidity [1]: 80%
water content after exposure to humidity [1]: 2.8%
State of the material after thermal treatment [2]: formed a deliquescent compact material
HPLC purity after thermal treatment ([2]; listed as polymorph A): 25.9%
amount that can be dissolved in tetrahydrofuran ([3]; tetrahydrofuran, reflux temperature): about 200 mg/ml
Solubility in water or aqueous systems (in words) ([3]; water): well soluble
solubility ([4]; aqueous with cosolvent or surfactant or cyclodextrin, thermodynamic from solid, acetone/water (1:1), read-out: Solubility): > 200000 µg/mL
solubility ([4]; ethanol): >10000 µg/mL
solubility ([4]; organic solvent or mixture, thermodynamic from solid, 1,4-dioxane, read-out: Solubility): ~2000 µg/mL
solubility ([4]; organic solvent or mixture, thermodynamic from solid, 2-propanol, read-out: Solubility): ~1000 µg/mL
solubility ([4]; organic solvent or mixture, thermodynamic from solid, 2-propanol/water (9:1), read-out: Solubility): < 1000 µg/mL
solubility ([4]; organic solvent or mixture, thermodynamic from solid, acetone, read-out: Solubility): ~2000 µg/mL
solubility ([4]; organic solvent or mixture, thermodynamic from solid, acetonitrile, read-out: Solubility): ~2000 µg/mL
solubility ([4]; organic solvent or mixture, thermodynamic from solid, dichloromethane, read-out: Solubility): > 30000 µg/mL
solubility ([4]; organic solvent or mixture, thermodynamic from solid, dimethylsulfoxide, read-out: Solubility): > 200000 µg/mL
solubility ([4]; organic solvent or mixture, thermodynamic from solid, ethyl acetate, read-out: Solubility): < 1000 µg/mL
solubility ([4]; organic solvent or mixture, thermodynamic from solid, methanol, read-out: Solubility): > 100000 µg/mL
solubility ([4]; organic solvent or mixture, thermodynamic from solid, methyl ethyl ketone, read-out: Solubility): < 1000 µg/mL
solubility ([4]; organic solvent or mixture, thermodynamic from solid, t-butyl methyl ether, read-out: Solubility): < 1000 µg/mL
solubility ([4]; organic solvent or mixture, thermodynamic from solid, toluene, read-out: Solubility): < 1000 µg/mL
solubility ([4]; tetrahydrofuran): >5000 µg/mL
solubility ([4]; thermodynamic from solid, water, read-out: Solubility): > 300000 µg/mL
Water uptake when exposed to humidity ([5]; above 75% relative humidity): considerable water uptake
Stability under ambient water partial pressures ([5]; relative humidities between 20% and 75%): sufficient stability
Stability at ambient temperatures [6]: stable

CC(C)COc1ccc(CNC(=O)N(Cc2ccc(F)cc2)C2CCN(C)CC2)cc1 [Form E, N-(4-fluorobenzyl)-N-(1-methylpiperidin-4-yl)-N′-(4-(2-methylpropyloxy)phenylmethyl)carbamide hemi-tartrate]
solubility (physchem): > 200000 µg/mL
